Laboratory results from PubChem BioAssay (NCI).
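48-hour exposure; five concentrations; linearly interpolated endpoints. TGI denotes the concentration required for complete inhibition of growth.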

Assays:
Experiment in all cases: growth of human tumour cells (NCI), 48 h
A498 renal = test system: A498 renal
CCRF-CEM leukemia = test system: CCRF-CEM leukemia
HCT-116 colon = test system: HCT-116 colon
HL-60(TB) leukemia = test system: HL-60(TB) leukemia
NCI-H226 lung = test system: NCI-H226 lung
NCI-H460 lung = test system: NCI-H460 lung
NCI-H522 lung = test system: NCI-H522 lung
SK-MEL-28 melanoma = test system: SK-MEL-28 melanoma
SN12C renal = test system: SN12C renal
SNB-19 CNS = test system: SNB-19 CNS

Row | SMILES | TGI (A498 renal) [µM] | TGI (CCRF-CEM leukemia) [µM] | TGI (HCT-116 colon) [µM] | TGI (HL-60(TB) leukemia) [µM] | TGI (NCI-H226 lung) [µM] | TGI (NCI-H460 lung) [µM] | TGI (NCI-H522 lung) [µM] | TGI (SK-MEL-28 melanoma) [µM] | TGI (SN12C renal) [µM] | TGI (SNB-19 CNS) [µM]
1 | C/C(=N\NC(=O)N/N=C(\C)c1ccccn1)c1ccccn1 | > 100 | > 100 | > 100 | > 100 | > 100 | > 100 | > 100 | > 100 | > 100 | > 100
2 | CC(C)(CN1CCCCC1)C(=O)/C=C/c1c(Cl)cccc1Cl | 4.96 | 2.73 | 2.02 | 4.37 | 9.88 | 3.86 | 0.913 | 3.2 | 3.1 | 8.39
3 | c1csc(-c2nnc(C34CC5CC(CC(C5)C3)C4)o2)c1 | 43.9 | 47.4 | > 100 | 33.5 | > 100 | > 100 | > 100 | > 100 | > 100 | > 100
4 | CCOC(=O)/C=C(/C(=O)OCC)n1ccc(=O)[nH]c1=O | 38.2 | 3.99 | 7.14 | 4.08 | 14.5 | 30.5 | 2.72 | 18.4 | 19.6 | 29.8
5 | COc1cnnc2c(C)c(-c3ccccc3)nn12 | > 100 | > 100 | > 100 | > 100 | > 100 | > 100 | > 100 | > 100 | > 100 | > 100
6 | O=C(CC(=O)Nc1ccccc1Cl)NNC(Sc1ccccc1)c1cc(N=Nc2ccc(Br)cc2)ccc1O (stereo not given) | 5.6 | 6.21 | 1.31 | 1.1 | 6.04 | 2.86 | > 10 | > 10 | > 10 | > 10
7 | CC(C)C(/C=C/c1ccccc1)=N\NC(=S)NN | > 100 | > 89.9 | > 100 | > 100 | > 100 | > 100 | > 89.3 | > 100 | > 100 | > 100
8 | CC(CN(C)C)C(=O)/C=C/c1ccc(Cl)c(Cl)c1 (stereo not given) | 3.69 | 2.74 | 2.99 | 4.46 | 5.57 | 5.2 | 3.24 | 16.5 | 3.11 | 19.7
9 | Cc1ccc(NC(=O)CC(=O)N2N=C(c3ccccc3)C(N=Nc3ccc(S(=O)(=O)CCOS(=O)(=O)O)cc3)C2=O)cc1 (stereo not given) | > 100 | > 100 | > 100 | > 100 | > 100 | > 100 | > 100 | > 100 | > 100 | > 100
10 | O=C1C(CN2CCCC2)CCCC1CN1CCCC1 (stereo not given) | 38.7 | 0.231 | 3.28 | 0.445 | 59.1 | 43.5 | 0.29 | 8.94 | 32.5 | > 100
11 | Cc1ccc(Nc2ccc(Nc3ccc(C)cc3S(=O)(=O)O)c3c2C(=O)c2ccccc2C3=O)c(S(=O)(=O)O)c1 | > 100 | > 100 | > 100 | > 100 | > 100 | > 100 | > 100 | > 100 | > 100 | > 100
12 | Cc1[nH]c(=O)[nH]c(=O)c1C(=O)N(CCO)Cc1ccccc1 | > 100 | > 100 | > 100 | > 100 | 43.9 | > 100 | > 100 | > 100 | > 100 | > 100
13 | CC(=O)OC1C(O)C(C)OC(OC(=O)C2CCC3C(C2)OC2(CC(OC(=O)/C=C/c4ccccc4)C(C)CO2)C32CO2)C1OC1OC(C)C(O)C(O)C1O (stereo not given) | 0.315 | 1.26 | 0.709 | 0.579 | 0.1 | 0.236 | 0.0487 | 0.0685 | 0.833 | 0.0909
